Columns and labels:
[1] = target: T1, Recombinant Human Bromodomain containing protein 4, bromodomain 1 (BRD4-BD1) (Homo sapiens, UniProt O60885); assay: AlphaScreen bromodomain binding assay (Reaction Biology), BRD4-1
T1 construct: bromodomain 1 (aa 44–170); purchased Reaction Biology (RBC) RD-11–140; host or cells: E. coli
Experimental: (§1) The reader assay is a binding assay using AlphaScreen technology […] assay and was performed by Reaction Biology (www.reactionbiology.com). The biotinylated peptide binding to the reader domain of His-tagged protein is monitored by the singlet oxygen transfer from the Streptavidin-coated donor beads to the AlphaScreen Ni-chelate acceptor beads.
(§2) Reaction buffer: 50 mM Hepes, pH7.5, 100 mM NaCl, 0.05% CHAPS, 0.1% BSA, and 1% DMSO (the final DMSO concentration may differ depending on compound stock and test concentrations).
(§3) Bromodomain: BRD4-1: RBC Cat# RD-11–140: Recombinant Human Bromodomain containing protein 4, bromodomain 1 (aa 44–170; Genbank Accession # NM_058243), expressed in E. coli with N-terminal His-tag. MW = 17.8 kDa; BRD4-2: RBC Cat# RD-11–141: Recombinant Human Bromodomain containing protein 4, bromodomain 2 (aa 349–460;Genbank Accession # NM_058243), expressed in E. coli with N-terminal His-tag. MW = 15.7 kDa. Ligand (C-term-Biotin): Histone H4 peptide (1–21) K5/8/12/16Ac-Biotin. Detection beads: PerkinElmer: Donor beads: Streptavidin-coated donor beads; Acceptor beads: AlphaScreen Ni acceptor beads.
Reaction procedure: • Deliver 2.5X BRD in wells of reaction plate except No BRD control wells. Add buffer instead. • Deliver compounds in 100% DMSO into the BRD mixture by Acoustic technology (Echo550; nanoliter range). […]

[2] = target: T2, Recombinant Human Bromodomain containing protein 4, bromodomain 2 (BRD4-BD2) (Homo sapiens, UniProt O60885); assay: AlphaScreen bromodomain binding assay (Reaction Biology), BRD4-2
T2 construct: purchased Reaction Biology (RBC) RD-11–141; host or cells: E. coli
Experimental: as §1, §2, §3
Reaction procedure: • Deliver 2.5X BRD in wells of reaction plate except No BRD control wells. Add buffer instead. • Deliver compounds in 100% DMSO into the BRD mixture by Acoustic technology (Echo550; nanoliter range). Spin down and pre-incubation for 30 min. • Deliver 5X Ligand. Spin and shake. • Incubate for 30 min at room temperature with gentle shaking. • Deliver 5X donor beads. Spin and shake. • Deliver 5X acceptor beads. Spin and shake. Then gentle shaking in the dark for 60 min. • Alpha measurement (Ex/Em = 680/520–620 nm) in Enspire.

SNI mice = assay: Hargreaves' plantar test, thermal allodynia in SNI mice; type: in vivo
Experimental: Mice were randomly assigned to each treatment group.
For i.n. administration, mice were slightly anesthetized by 2% isoflurane inhalation and placed in a supine position [30]. A 5 μl aliquot of solution (treatments or vehicle) was slowly dropped alternatively to each nostril with a micropipette tip.
Behavioral testing was performed before surgery to establish a baseline for comparison with post-surgical values.
Animals were habituated to the testing environment daily for at least 2 days before baseline testing. To evaluate onset and progression of pain hypersensitivity, neuropathic mice were monitored by measuring nociceptive responses every 30 min for 3 h before surgery or 3, 7, 10, and 14 days after nerve surgery. Experiments were performed on post-surgery day 7 and 14 when the pain hypersensitivity was well established. Each mouse served as its own control, the responses being measured both before and after surgery. All testing was performed with a blind procedure.
Thermal nociceptive threshold was measured using Hargreaves’ device, as described [33]. Nociceptive response for thermal sensitivity was expressed as thermal paw withdrawal latency in seconds. All determinations were averaged for each animal.

[3] = Intrinsic fluorescence of the compound in spinal cord after i.n. delivery; type: in vivo, mice
Text: On postsurgical day 14, animals were perfused transcardially with 4% paraformaldehyde in 0.1 M phosphate buffer (PBS, pH 7.4). After perfusion, lumbar spinal cord was quickly removed and processed as previously described. Four animals per groups were used for this analysis. […] Primary antibody used was IBA1 (1:100; Santa Cruz Biotechnology Cat# sc-32725, RRID:AB_667733). […] A Leica DM6000B fluorescence microscope equipped with a DFC350FX digital camera with appropriate excitation and emission filters for each fluorophore was used to acquire representative images. […] The immunofluorescence intensity was calculated by ImageJ (Wayne Rasband, National Institute of Health, USA).
Co-localization of two different labels was measured using EzColocalization plugin (ImageJ). The extent of co-localization was determined by calculating the Mander’s overlap coefficient (MOC) and the Pearson’s correlation coefficient (PCC). […] PCC quantify the correlation between individual fluorophores considering their intensities. PCC is characterized by determined value range: −1, which indicate anticolocalization; +1, which indicates colocalization; 0, which indicates there is no colocalization.

iNOS (NOS2) = assay: Western blot of lumbar spinal cord, iNOS; type: in vivo, mice; conditions: SNI ipsilateral side, day 7 and 14
Experimental: (§4) The lumbar spinal cord was removed 7 and 14 days after surgery and 90 min after the intranasal administration of SUM52, corresponding to the peack of the effect. Samples (n = 4 for groups) were homogenized in a homogenization buffer and processed as previously described. Protein samples (40 µg of protein/sample) were separated on 10% SDS-PAGE and transferred onto nitrocellulose membranes (120 min at 100 V) using standard procedures. Membranes were blocked in PBST (PBS containing 0.1% Tween) containing 5% nonfat dry milk for 120 min. […] Blots were then extensively washed and developed using enhanced chemiluminescence detection system (Pierce, Milan, Italy) and signal intensity (pixels/mm^2) quantified (ImageJ, NIH). […] For each sample, the signal intensity was normalized to that of total protein stained by Ponceau S and the acquired images were quantified using Image Lab software. […]

[4] = tested on: MAPK p38 (phosphorylated); assay: Western blot of lumbar spinal cord, p-p38; type: in vivo, mice; conditions: SNI ipsilateral side, day 7 and 14
Experimental: as §4

IL-1ß = assay: Western blot of lumbar spinal cord, IL-1ß; type: in vivo, mice; conditions: SNI ipsilateral side, day 7 and 14
Experimental: as §4

Cc1nnc2n1-c1ccccc1C(c1ccccc1)=N[C@H]2CC(=O)NCCCCCCC(=O)NO [SUM52, (S)-N-hydroxy-7-(2-(1-methyl-6-phenyl-4H-benzo[f][1,2,4]triazolo[4,3-a][1,4]diazepin-4-yl)acetamido)heptanamide]
IC50 [1]: 0.758 µM
IC50 [2]: 0.0105 µM
preference between BRD4-BD1 and BRD4-BD2 domains ([2]; BRD4-BD1 vs BRD4-BD2): preferential interaction for BRD4-BD2
thermal antiallodynic activity, ipsilateral side (SNI mice; 10 µM i.n., 90 min): ineffective
thermal antiallodynic activity, ipsilateral side (SNI mice; 50 µM i.n., vs before treatment values): attenuated the SNI-induced pain hypersensitivity
thermal antiallodynic activity, ipsilateral side (SNI mice; 75 µM i.n., vs before treatment values): attenuated the SNI-induced pain hypersensitivity
thermal antiallodynic activity, ipsilateral side (SNI mice; 100 µM i.n.): the effect was significantly reduced
duration of effect on thermal allodynia compared with SUM35 (SNI mice; SUM52 50 µM vs SUM35 100 µM): more prolonged affect
efficacy in attenuating thermal allodynia compared with SUM35 (SNI mice; SUM52 50 µM vs SUM35 100 µM, normalized to control group, day 7 and 14): comparable efficacy
thermal analgesic effect in the contralateral side (SNI mice; contralateral (uninjured) side of SNI mice): absence
thermal antiallodynic efficacy compared with SAHA + iBET762 combination (SNI mice; time-course comparison, combination i-BET762 10 µg, SAHA 3 µg): comparable efficacy
distribution to spinal cord (intrinsic fluorescence) ([3]; after i.n. delivery, vs vehicle-treated mice): able to reach the spinal cord and diffuse into the tissue
intrinsic fluorescence in microglial cells ([3]; spinal cord sections of SNI mice, IBA1 co-staining): detected in IBA1 positive microglial cells
NOS2 (iNOS) expression (iNOS (NOS2)): reduced NOS2 overactivation
phosphorylation of MAPK p38 [4]: drastically reduced
IL-1ß expression (IL-1ß): drastically reduced
